Results from patent publication US9408828B2, “(+)-3′-angeloyloxy-4′-keto-3′,4′-dihydroseselin for treating inflammation” (Hong Kong Baptist University, priority 2014, dated 2016).

System: DSS-induced colitis
Test: Chronic DSS-induced colitis in mice (body weight, DAI, colon length, histology)
Assay type: in vivo, C57BL/6 mice
Conditions: sulfasalazine (positive control) 300 mg/kg/day for seven days
Excerpt: 6-week-old male C57BL/6 mice weighing 18-20 g are purchased from the Laboratory Animal Services Center, the Chinese University of Hong Kong. The study protocols are approved by the committee for Care of Laboratory Animals in the School of Chinese Medicine at the Hong Kong Baptist University. The animals are divided into six groups (8-10 each group): control group (mice received drinking water and control diet), DSS-treated group (mice received 2.0% DSS in drinking and control diet), positive control group (mice received 2.0% DSS in drinking and ip, 300 mg/kg/day of sulfasalazine), Pd-Ib treatment groups will be given different dosed of Pd-Ib (mice received 2.0% DSS in drinking and i.p., 30, 60, or 120 mg/kg/day, respectively). As depicted in experiment design shown in FIG. 9, the mice are given tap water for 6 days, and then be divided into 6 groups. DSS is dissolved in distilled water at a concentration of 2% (w/v) and administered to the mice. The first day and the last day of DSS treatment are designated as day 7 and day 11, respectively. Mice are marked and checked daily for body weight. On day 12, body weight, stool consistency, and gross bleeding of each mouse are assessed, and animals showing body weight loss, diarrhea, and bleeding are selected for further analysis. All colitis mice are then interventions once daily for seven days, with eight mice in each group. The DSS model group is administered with tap water as negative control; while sulfasalazine is given as positive control (i.p., 300 mg/kg/day) and Pd-Ib treatment groups are given different doses of Pd-Ib (i.p., 30, 60, or 120 mg/kg/day, respectively). In parallel, a vehicle control group is also set up to receive drinking tap water without DSS throughout the entire experimental period. On day 19, after the mice are killed under anesthesia induced by pentobarbital sodium (i.p., 0.65 g/kg), the length of the large intestine is measured. All portions are stored at −80° C. for biochemical assays. The DAI is determined by scoring changes in the body weight, diarrhea, colon length, and bleeding. In brief, body weight, stool consistency, colon length and bleeding in the stool are monitored daily for determination of DAI. At the end of the experiment, mice are killed, and the colon is dissected from each mouse, and the length of which is measured from the ileocecal junction to the anal verge. The colons are opened longitudinally, gently washed with ice-cold PBS, fixed in 4% paraformaldehyde overnight, and embedded in paraffin. Five-micro-meter sections are stained with hematoxylin/eosin according to a standard procedure to evaluate colonic damage. Colitis is induced in all groups except the control group. Pd-Ib and sulfasalazine are administered to mice from day 6 to day 12. The change in body weight is taken as the difference between the body weight before induction of colitis and that immediately before sacrifice on day 13. The DAI score is determined by combining scores of (i) body weight loss, (ii) stool consistency, and (iii) stool bleeding. On day 13, the mice are sacrificed, and the colon lengths are measured. Data are expressed as mean±SEM, n=8 (^###p<0.001, compared with the control group; *p<0.05, **p<0.01, ***p<0.001, compared with DSS model group).

O=C(O)c1cc(/N=N/c2ccc(S(=O)(=O)Nc3ccccn3)cc2)ccc1O [sulfasalazine, Sulfasalazine, reference compound]
histological manifestation of colon tissue sections: significantly decrease the damage of colon tissues
